This is an account of results in patent US6353024B1, “Method for preventing and treating arthritis, osteo-traumatic pain, and neuralgias with trimebutine” (Warner-Lambert Company, priority 2000, dated 2002).

One data set has as its system formalin induced pain. Nature of the data set: formalin-induced pain. The note with it: s.c., 30 min before formalin injection in the paw.
For data set [1], the system named is unilateral peripheral mononeuropathy. Put plainly: rat mononeuropathy, vocalization threshold to paw pressure.
For data set [2], the system named is streptozocin-induced hyperalgesia. Nature of the data set: streptozocin-induced diabetic rats, tail immersion test. It is filed as in vivo, rat. The settings on record: single dose 30 mg/kg s.c., 30 min or 60 min before tail immersion test, water 44° C. The method, then: FIG. 9: Effect of TMB in diabetic rats.
Test is carried out with male Sprague Dawley rats (Iffa-Credo) weighing 160-180 grams on arrival. […] Food and water are provided ad libidum.
Animals are intraperitoneally injected with streptozocin 75 mg/kg. Control animals are given vehicle in the same conditions. Diabetes are confirmed once a week after injection by measurement of tail vein blood glucose levels with Boehriger glycemnia test. Only animals with a final glucose level[…] are included in the study.
The tail of the rat is immersed in a water bath at 44° C. Nociceptive reaction is defined as the reaction time (seconds) before the tail withdrawal. Results are expressed as the mean+/−SEM and analysed by a Student's t test after an analysis of variance (Anova one way)

For data set [3] the following is noted: volunteers, tablets of 900 mg of trimebutine, oral.
Data set [4] relates to sodium current of DRG neurons. Put plainly: whole cell patch clamp, sodium currents in DRG neurons. It is filed as cell-based, rat.

Some results are limits rather than exact numbers.

For the molecule `CCC(COC(=O)c1cc(OC)c(OC)c(OC)c1)(NC)c1ccccc1` (stereo not drawn) [Nor-TMB, N-desmethyl trimebutine], the “ED50, formalin induced pain” value in the data set on formalin induced pain came to 17 mg/kg.
On to `CC[C@](COC(=O)c1cc(OC)c(OC)c(OC)c1)(NC)c1ccccc1` [(S)-Nor-TMB, (S)-N-desmethyl trimebutine], for which, in data set [1] (3 and 10 mg/kg s.c.), the “antinociceptive effect in terms of amplitude and duration of action” value was “superior to that of morphine at 1 mg/kg i.v”. In data set [1] (s.c.), the “antinociceptive effect in the contralateral paw” value is given as “only at the highest dose (10 mg/kg)” and the “dose from which increase of the vocalization pressure threshold is present” value was at least 1 mg/kg. Moreover, the “antinociceptive effect in the nerve-injured paw” value in data set [1] (s.c., three doses) is “significant at all the three doses tested”. Further, the “reaction time of tail withdrawal” value in data set [2] is listed as “the same as in control (non diabetic) rats”.
As for `CCC(COC(=O)c1cc(OC)c(OC)c(OC)c1)(c1ccccc1)N(C)C.O=C(O)/C=C\C(=O)O` (racemic) [trimebutine, 2-dimethylamino-2-phenylbutyl 3,4,5-trimethoxybenzoate hydrogen maleate], the “time of maximal plasma concentrations” value in data set [3] came to 1 h. Besides, the unblocking rate koff in data set [4] is recorded as 29 10^−3 s^−1. In data set [4] (n=6), the “time constant τoff of recovery from block” value was 34 ± 4 s.
